These results are taken from patent publication US7312358B2, “Pharmaceutically active sulfanilide derivatives” (Laboratoires Serono SA, priority 2000, dated 2007).

Test system in one series: not given
Experiment: not given
Conditions: not given
The melting point is the temperature, or range, at which the solid turns liquid. Regarding `CCOc1ccc(S(=O)(=O)N(CC(=O)N/N=C2/C(=O)Nc3ccc(S(=O)(=O)O)cc32)c2ccc(C)cc2)cc1` [Example 1, 3-[({[(4-ethoxyphenyl)sulfonyl]-4-methylanilino}acetyl)hydrazono]-2-oxo-2,3-dihydro-H-indole-5-sulfonic Acid], the melting point is 318 to 319 °C (dec.).

Take `CCOc1ccc(S(=O)(=O)N(CC(=O)N/N=C2/C(=O)Nc3ccccc32)c2ccccc2)cc1` [Example 2, 4-ethoxy-N-{2-oxo-2-[2-(2-oxo-1,2-dihydro-3H-indol-3-ylidene)hydrazino]-ethyl}-N-phenylbenzenesulfonamide]: the melting point is 135.5 to 136.5 °C.

For `CCOc1ccc(S(=O)(=O)N(CC(=O)N/N=C2/C(=O)Nc3ccc([N+](=O)[O-])cc32)c2ccccc2)cc1` [Example 3, 4-ethoxy-N-{2-[2-(5-nitro-2-oxo-1,2-dihydro-3H-indol-3-ylidene)hydrazino]-2-oxoethyl}-N-phenylbenzenesulfonamide], the melting point lay within 252 to 253 °C.

`CCOc1ccc(S(=O)(=O)N(CC(=O)N/N=C2/C(=O)Nc3ccc(I)cc32)c2ccccc2)cc1` [Example 4, 4-ethoxy-N-{2-[2-(5-iodo-2-oxo-1,2-dihydro-3H-indol-3-ylidene)hydrazino]-2-oxoethyl}-N-phenylbenzenesulfonamide] yielded a melting point of 233 to 234 °C.

Take `Cc1ccc(N(CC(=O)N/N=C2/C(=O)Nc3ccccc32)S(=O)(=O)c2cccc3ccccc23)cc1` [Example 6, N-(4-methylphenyl)-N-{2-oxo-2-[2-(2-oxo-1,2-dihydro-3H-indol-3-ylidene)hydrazino]ethyl}-1-naphthalenesulfonamide]: the melting point was 138 to 139 °C.

Take `Cc1ccc(N(CC(=O)N/N=C2/C(=O)Nc3ccccc32)S(=O)(=O)c2ccc(Cl)cc2)cc1` [Example 8, 4-chloro-N-(4-methylphenyl)-N-{2-oxo-2-[2-(2-oxo-1,2-dihydro-3H-indol-3-ylidene)hydrazino]ethyl}benzenesulfonamide]: the melting point fell in the range of 234 to 235 °C.

Regarding `COc1ccc(S(=O)(=O)N(CC(=O)N/N=C2/C(=O)Nc3ccccc32)c2ccc(C)cc2)cc1` [Example 9, 4-methoxy-N-(4-methylphenyl)-N-{2-oxo-2-[2-(2-oxo-1,2-dihydro-3H-indol-3-ylidene)hydrazino]ethyl}benzenesulfonamide], the melting point fell in the range of 134 to 135 °C.

In turn, `Cc1ccc(N(CC(=O)N/N=C2/C(=O)Nc3ccccc32)S(=O)(=O)c2ccc(C)cc2)cc1` [Example 10, 4-methyl-N-(4-methylphenyl)-N-{2-oxo-2-[2-(2-oxo-1,2-dihydro-3H-indol-3-ylidene)hydrazino]ethyl}benzenesulfonamide] gave a melting point of 243 to 244 °C.

Consider `CCOc1ccc(S(=O)(=O)N(CC(=O)N/N=C\c2ccccc2F)c2ccc(C)cc2)cc1` [Example 12, 4-ethoxy-N-{2-[2-(2-fluorobenzylidene)hydrazino]-2-oxoethyl}-N-(4-methylphenyl)benzenesulfonamide], for which the melting point fell in the range of 183 to 184 °C.

Turning to `Cc1ccc(N(CC(=O)N/N=C2/C(=O)Nc3ccccc32)S(=O)(=O)c2ccc(-c3ccccc3)cc2)cc1` [Example 13, N-(4-methylphenyl)-N-{2-oxo-2-[2-(2-oxo-1.2-dihydro-3H-indol-3-ylidene)hydrazino]ethyl}[1,1′-biphenyl]-4-sulfonamide], the melting point lay within 246 to 247 °C.

Molecule `Cc1ccc(N(CC(=O)N/N=C2/C(=O)Nc3ccccc32)S(=O)(=O)c2ccc(Oc3ccccc3)cc2)cc1` [Example 14, N-(4-methylphenyl)-N-{2-oxo-2-[2-(2-oxo-1,2-dihydro-3H-indol-3-ylidene)hydrazino]ethyl}-4-phenoxybenzenesulfonamide] yielded a melting point of 245 to 246 °C.

As to `CCOc1ccc(S(=O)(=O)N(CC(=O)N/N=C\c2ccc(N(CC)CC)cc2O)c2ccc(C)cc2)cc1` [Example 16, N-(2-{2-[4-(diethylamino)-2-hydroxybenzylidene]hydrazino}-2-oxoethyl)-4-ethoxy-N-(4-methylphenyl)benzenesulfonamide], the melting point is 227 to 228 °C.

The target in a further series is T1, hOT receptor (Homo sapiens, UniProt P30559).
T1 construct: expressed in transfected cells; host or cells: HEK293EBNA cells (membranes)
T1 sequence (P30559 1-389): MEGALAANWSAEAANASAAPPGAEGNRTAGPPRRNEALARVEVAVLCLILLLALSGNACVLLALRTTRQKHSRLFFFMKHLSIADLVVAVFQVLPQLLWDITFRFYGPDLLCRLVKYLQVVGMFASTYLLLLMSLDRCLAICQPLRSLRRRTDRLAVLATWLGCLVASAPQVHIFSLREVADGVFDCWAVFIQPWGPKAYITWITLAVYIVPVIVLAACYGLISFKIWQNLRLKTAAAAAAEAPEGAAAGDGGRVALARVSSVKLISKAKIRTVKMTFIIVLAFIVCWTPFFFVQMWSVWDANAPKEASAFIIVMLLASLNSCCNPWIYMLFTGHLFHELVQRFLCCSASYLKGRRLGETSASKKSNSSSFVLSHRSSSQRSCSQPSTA
Briefly: In vitro competition binding assay on hOT receptor with scintillating proximity assay. The conditions noted are these: membranes from HEK293EBNA cells expressing hOT receptor; radiolabel [125I]-OVTA; SPA; read-out: Binding Affinity Human OT-R Ki. How it is done: a) In Vitro Competition Binding Assay on hOT Receptor with Scintillating Proximity Assay (Pharmaceutical Manufacturing International, 1992, p. 49-53 by Cook, N. D. et al)
This assays allows to determine the affinity of the test compounds for the OT receptor. Membranes from HEK293EBNA cells expressing the hOT receptor were resuspended in buffer containing 50 mM Tris-HCl, pH 7.4, 5 mM MgCl2 and 0.1% BSA (w/v). The membranes (2-4 μg) were mixed with 0.1 mg wheat-germ aglutinin (WGA) SPA bead (type A) and 0.2 nM of the radiolabel [^125I]-OVTA (OVTA being […] and is an analogue of OT for competition binding experiments). Non-specific binding was determined in the presence of 1 μM Oxytocin. The total assay volume was 100 μl. The plates (Corning (D NBS plate) were incubated at room temperature for 30 min and counted on a Mibrobeta plate counter. The tests compounds were used in concentrations of 30 μM, 10 μM, 1 μM, 300 nM, 100 nM, 10 nM, 1 nM, 100 pM, 10 pM. The competition binding data were analysed using the iterative, nonlinear, curve-fitting program, “Prism”.
The binding affinities to the oxytocin receptor of the sulfanilide derivatives claimed in the formula I were assessed using the above described in vitro biological assay. The values refer to the binding affinity (IC50; μM) of the example compounds according to formula I to the Oxytocin receptor. From the values shown in Table 1 it can be derived that said test compounds according to formula I do show a significant binding to the oxytocin receptor.
The Ki is a dissociation constant, usually derived from enzyme kinetics or from competition with a known ligand. Take `O=C(CN(c1ccc(Br)cc1)S(=O)(=O)c1ccccc1)Nc1cccc2cccnc12` [2-[Benzenesulfonyl-(4-bromo-phenyl)-amino]-N-quinolin-8-yl-acetamide]: the inhibitory constant (Ki) was determined as 192 nM.

`CCOc1ccc(S(=O)(=O)N(CC(=O)N/N=C\c2ccccc2O)c2ccc(C)cc2)cc1` [Example 15, 4-ethoxy-N-{2-[2-(2-hydroxybenzylidene)hydrazino]-2-oxoethyl}-N-(4-methylphenyl)benzenesulfonamide]: the Ki came to 1.2 nM.

On to `O=C(CN(c1ccc(Cl)cc1)S(=O)(=O)c1cccs1)N/N=C1\C(=O)Nc2ccccc21` [Example 36, N-(4-chlorophenyl)-N-{2-oxo-2-[(2Z)-2-(2-oxo-1,2-dihydro-3H-indol-3-ylidene)hydrazino]ethyl}-2-thiophenesulfonamide], for which the Ki worked out at 29.3 nM.

Turning to `CCOc1ccc(S(=O)(=O)N(CC(=O)N/N=C2\C(=O)Nc3ccncc32)c2ccc(Cl)cc2)cc1` [Example 50, N-(4-chlorophenyl)-4-ethoxy-N-{2-oxo-2-[(2Z)-2-(2-oxo-1,2-dihydro-3H-pyrrolo[3,2-c]pyridin-3-ylidene)hydrazino]ethyl}benzenesulfonamide], the Ki is 57.1 nM.

Turning to `CN(C)CCOc1ccc(S(=O)(=O)N(CC(=O)N/N=C2\C(=O)Nc3ccccc32)c2ccc(Cl)cc2)cc1` [Example 57, N-(4-chlorophenyl)-4-[2-(dimethylamino)ethoxy]-N-{2-oxo-2-[(2Z)-2-(2-oxo-1.2-dihydro-3H-indol-3-ylidene)hydrazino]ethyl}benzenesulfonamide], the Ki was 1.8 nM.

`Cc1ccc(N(CC(=O)N/N=C2\C(=O)Nc3ccccc32)S(=O)(=O)c2ccc(OCCCN(C)C)cc2)cc1` [Example 59, 4-[3-(Dimethylamino)propoxy]-N-(4-methylphenyl)-N-{2-oxo-2-[(2Z)-2-(2-oxo-1,2-dihydro-3H-indol-3-ylidene)hydrazino]ethyl}benzenesulfonamide]: the Ki came out at 0.3 nM.

In the case of `O=C(CN(c1ccc(Cl)cc1)S(=O)(=O)c1ccc(OCc2cccs2)cc1)N/N=C1\C(=O)Nc2ccccc21` [Example 60, N-(4-chlorophenyl)-N-{2-oxo-2-[(2Z)-2-(2-oxo-1,2-dihydro-3H-indol-3-ylidene)hydrazino]ethyl}-4-(2-thienylmethoxy)benzenesulfonamide], the Ki worked out at 53.3 nM.

On to `CN(C)CCCOc1ccc(S(=O)(=O)N(CC(=O)N/N=C2\C(=O)Nc3ccncc32)c2ccc(Cl)cc2)cc1` [Example 68, N-(4-chlorophenyl)-4-[3-(dimethylamino)propoxy]-N-{2-oxo-2-[(2Z)-2-(2-oxo-1,2-dihydro-3H-pyrrolo[3,2-c]pyridin-3-ylidene)hydrazino]ethyl}benzenesulfonamide], for which the Ki turned out to be 78.1 nM.

For the molecule `COc1ccc(N(CC(=O)N2Cc3ccccc3CC2CC(N)=O)S(=O)(=O)c2ccc(OC)c(OC)c2)cc1` (stereo not shown) [Example 82, 2-[2-({[(3,4-Dimethoxyphenyl)sulfonyl]-4-methoxyanilino}acetyl)-1,2,3,4-tetrahydro-3-isoquinolinyl]acetamide], the Ki was 465 nM.

As for `CCOc1ccc(S(=O)(=O)N(CC(=O)N2Cc3ccccc3CC2CC(N)=O)c2ccc(C)cc2)cc1` (stereo not shown) [Example 89, 2-[2-({[(4-Ethoxyphenyl)sulfonyl]-4-methylanilino}acetyl)-1,2,3,4-tetrahydro-3-isoguinolinyl]acetamide], the Ki stood at 498 nM.

Turning to `CCOc1ccc(S(=O)(=O)N(CC(=O)N2Cc3ccccc3CC2C(N)=O)c2ccc(OC)cc2)cc1` (stereo not shown) [Example 91, 2-({[(4-Ethoxyphenyl)sulfonyl]-4-methoxyanilino}acetyl)-1.2,3,4-tetrahydro-3-isoquinolinecarboxamide], the Ki came to 316 nM.

For the molecule `Cc1ccc(N(CC(=O)N2CCc3ccccc3C2)S(=O)(=O)c2ccccc2)cc1` [N-[2-(3,4-Dihydro-1H-isoquinolin-2-yl)-2-oxo-ethyl]-N-p-tolyl-benzenesulfonamide], the Ki was 472 nM.

In the case of “N-(4-chlorophenyl)-4-ethoxy-N-{2-[(2E)-2-(2-hydroxybenzylidene)hydrazino]-2-oxoethyl}benzenesulfonamide [Example 38]”, the Ki was determined as 14.8 nM.
